Measured values: ChEMBL document CHEMBL1153654, “Synthesis and potential anxiolytic activity of 4-amino-pyrido[2,3-b]indoles” (Bioorg Med Chem Lett, 1993)

How the values were obtained:
Rattus norvegicus = assay: Tested for minimum effective dose required to cause motor in coordination in Geller-Seifter model in CFY rats (route of administration is peroral 30 min before testing); format: functional; details: po, read-out: MED
[1] = molecular target: GABA-A receptor; anion channel; assay: Displacement of [35S]TBPS from GABA-A receptor complex at low umolar concentration; format: protein-complex assay
[2] = molecular target: GABA-A receptor; anion channel; assay: Displacement of [3H]flunitrazepam from GABA-A central benzodiazepine receptor of mouse brain
[3] = system: GABA-A receptor; anion channel; assay: Displacement of [35S]TBPS from GABA-A receptor complex at low umolar concentration (insoluble); format: protein-complex assay
[4] = system: GABA-A receptor; anion channel; assay: Displacement of [3H]flunitrazepam from GABA-A central benzodiazepine receptor of mouse brain (insoluble)

## COC(=O)c1c(C)nc2c(c1N)c1ccccc1n2C(=O)OC
Rattus norvegicus
  minimal effective dose: 20 mg/kg
[1]
  IC50: 9.5 µM
[2]
  IC50: > 30 µM

## CNc1c(C(=O)OC)c(C)nc2c1c1ccccc1n2C
Rattus norvegicus
  minimal effective dose: 20 mg/kg
[1]
  IC50: 17.1 µM
[2]
  IC50: 82.3 µM

## COC(=O)c1c(C)nc2c(c1N)c1ccccc1n2C
Rattus norvegicus
  minimal effective dose: 10 mg/kg
[1]
  IC50: 14.6 µM
[2]
  IC50: > 100 µM

## Cc1[nH]c2nc3ccccc3c-2c(N)c1C(N)=O
Rattus norvegicus
  minimal effective dose: > 50 mg/kg
[1]
  IC50: > 100 µM
[2]
  IC50: > 100 µM

## Cc1nc2c(c(N)c1C(=O)OCc1ccccc1)c1ccccc1n2C
Rattus norvegicus
  minimal effective dose: > 50 mg/kg
[1]
  IC50: > 30 µM
[2]
  IC50: > 30 µM

## CN1C(=O)CN=C(c2ccccc2)c2cc(Cl)ccc21 [DIAZEPAM]
Rattus norvegicus
  minimal effective dose: 2.5 mg/kg

## COC(=O)c1c(C)[nH]c2nc3ccccc3c-2c1N
Rattus norvegicus
  minimal effective dose: 5 mg/kg
[3]
  IC50: Insoluble
[4]
  IC50: Insoluble

## CCOC(=O)c1c(C)nc2c(c1N)c1ccccc1n2Cc1ccccc1
Rattus norvegicus
  minimal effective dose: > 50 mg/kg
[3]
  IC50: Insoluble
[4]
  IC50: Insoluble

## Cc1nc2c(c(N)c1C(=O)O)c1ccccc1n2C
Rattus norvegicus
  minimal effective dose: > 50 mg/kg
[1]
  IC50: > 100 µM
[2]
  IC50: > 100 µM

## COC(=O)c1c(C)nc2c(c1N)c1ccccc1n2C1CCCC1
Rattus norvegicus
  minimal effective dose: > 50 mg/kg
[1]
  IC50: 80 µM
[2]
  IC50: > 100 µM

## CCn1c2ccccc2c2c(N)c(C(=O)OC)c(C)nc21
Rattus norvegicus
  minimal effective dose: 5 mg/kg
[1]
  IC50: 5.9 µM
[2]
  IC50: > 100 µM

## CCCOC(=O)c1c(C)nc2c(c1N)c1ccccc1n2C
Rattus norvegicus
  minimal effective dose: 10 mg/kg
[1]
  IC50: 2.2 µM
[2]
  IC50: > 100 µM

## Cc1nc2c(c(N)c1CO)c1ccccc1n2C
Rattus norvegicus
  minimal effective dose: > 50 mg/kg
[1]
  IC50: > 100 µM
[2]
  IC50: > 100 µM

## COP(=O)(OC)c1c(C)nc2c(c1N)c1ccccc1n2C
Rattus norvegicus
  minimal effective dose: > 20 mg/kg
[1]
  IC50: > 30 µM
[2]
  IC50: > 30 µM

## COC(=O)c1c(-c2ccccc2)nc2c(c1N)c1ccccc1n2C
Rattus norvegicus
  minimal effective dose: 50 mg/kg
[1]
  IC50: 11.2 µM
[2]
  IC50: > 30 µM

## C=CCOC(=O)c1c(C)nc2c(c1N)c1ccccc1n2C
Rattus norvegicus
  minimal effective dose: 20 mg/kg
[1]
  IC50: 3.8 µM
[2]
  IC50: > 100 µM

## COC(=O)c1c(C)nc2c(c1N)c1cc(Cl)ccc1n2C
Rattus norvegicus
  minimal effective dose: 50 mg/kg
[3]
  IC50: Insoluble
[4]
  IC50: Insoluble

## CCOC(=O)c1c(C)nc2c(c1N)c1ccccc1n2C
Rattus norvegicus
  minimal effective dose: 10 mg/kg
[1]
  IC50: 4.6 µM
[2]
  IC50: > 100 µM
